The test system of data set [1] is rat urinary bladder detrusor muscle strips. Description: Field stimulation contractions of isolated smooth muscle (organ bath tension recording). On the procedure: (§1) Smooth muscle preparations were obtained from male Wistar strain albino rats. The animals were killed by a blow to the head and smooth muscle strips (about 2 mm x 10 mm) were dissected from the bladder. The vasa deferentia were divided into two portions and longitudinally bisected. Tests on cardiac muscle were carried out using isolated cannulated flounder heart. All mammalian preparations were maintained in Krebs solution containing NaCl : 120.7 mM; NaH₂PO₄ : 1.3 mM; KCl : 5.9 mM; NaHCO₃ : 15.5 mM and CaCl₂ : 2.5mM; glucose : 11.5 mM. MgCl₂ : 1.2mM The Krebs solution was adjusted to pH 7.3 with HCl and was continuously aerated and maintained at 37°C.
(§2) To record tension the muscle preparations were mounted vertically in jacketed organ baths which were continuously aerated and whose contents could be rapidly changed. The preparations were attached to a set of Grass Instruments ST 0.3C force displacement transducers held in adjustable rackwork, and the racks were adjusted to put slight tension on the preparations. After mounting in the perfusion baths the preparations were allowed to equilibrate for 1 hour, the bath saline being changed every 15 min. The force displacement transducer outputs were connected to a four-channel Grass model 79 polygraph. The stimulation electrode terminals were attached to Grass SIU 5 isolation units connected to two Grass S48 stimulators driven in tandem. Stimulation train parameters varied in different preparations but a common regime consisted of a 200 msec train of pulses at 50 Hz, each pulse being 2-5 msec at 40-50 V. Trains were automatically repeated usually at 100 or 50 sec intervals. The techniques have been described in detail by Huddart and Butler (1986) in Gen. Pharmac., 17, 695-703 (1986).
(§3) The smooth muscle preparations were threaded through two silver/silver chloride ring electrodes (4 mm inside diameter), mounted 10 mm apart on a perspex rod. The bottom ligature was passed through a fine hole in a nylon screw at the base of the rod. By turning the screw the muscle strip could be drawn exactly through the electrode rings. The electrode assemblies were then placed in the jacketed organ baths as described above and the upper muscle ligatures attached to the transducer to measure tension. Both the vas deferens and the bladder smooth muscles responded to the field stimulation with consistent repeatable contractions. It is believed that these contractions are calcium-dependent via the operation of slow calcium channels. The effect of ABA on these contractions was tested by adding a concentrated solution thereof to the perfusion solution to give an overall ABA concentration of 10⁻⁶M. In the two vas deferens studies the slow calcium channel blocker nifedipine was then added in the same manner to produce a concentration of 10⁻⁷M. […]

For data set [2], the system named is rat vas deferens smooth muscle. The description is as above. On the procedure: as §1, §2, §3
Data set [3] deals with rat urinary bladder detrusor muscle strips. Description: High-K (60 mM K+) contracture response of K+-depolarized muscle. On the procedure: as §1, §2
(A) Rat urinary bladder detrusor muscle strips were tested in a high-K saline prepared by substitution of sodium compounds in the Krebs' solution by equimolar amounts of potassium compounds to give a K+ concentration of 60 mM. At this level of depolarization it is believed that the fast calcium channels are voltage-inactivated. […]

Data set [4] deals with flounder heart. The data set is described as follows: Contractile force of isolated cannulated heart. On the procedure:
as §1
The flounder heart was maintained at 10°C in flounder saline containing NaCl : 116.7 mM, CaCl₂ : 1.72 mM, Na₂SO₄ : 18.6 mM, TES : 2.5 mM and KCl : 2.71 mM, glucose : 5.0 mM MgSO₄ : 0.67 mM, at pH 7.65.
as §2
The contractile force in flounder heart was measured before and after addition of ABA to the perfusion solution.

For data set [5], the system named is rat vas deferens smooth muscle (partly depolarized). Description: K+-induced (20 mM K) contracture tension, dose-response comparison. The note with it: for activity in enhancing K+-induced contracture tension: parallel trials of ABA and BAY K 8644, result in words. On the procedure:
Smooth muscle preparations were obtained from male Wistar strain albino rats. The animals were killed by a blow to the head and smooth muscle strips (about 2 mm x 10 mm) were dissected from the bladder. The vasa deferentia were divided into two portions and longitudinally bisected. Tests on cardiac muscle were carried out using isolated cannulated flounder heart. […] MgCl₂ : 1.2mM The Krebs solution was adjusted to pH 7.3 with HCl and was continuously aerated and maintained at 37°C.
as §2, with “intervals.” for “intervals. The techniques have been described in detail by Huddart and Butler (1986) in Gen. Pharmac., 17, 695-703 (1986).”

Data set [6] concerns microsomal calcium efflux. Description: Potassium-stimulated microsomal calcium efflux. It is filed as biochemical.
Data set [7] can be described thus: Field stimulation response (more recent findings, tissue not stated). The note with it: no tissue or concentration printed.
The mark [8] stands for this setting: Rattus norvegicus, read-out: enhanced field stimulation responses.

Entries after “also recorded” stand apart in the source; their conditions may differ.

Consider `CC1=CC(=O)CC(C)(C)C1(O)/C=C/C(C)=C\C(=O)O` (racemic) [ABA, (1ʹS,2Z,4E)-5-(1ʹ-hydroxy-2ʹ,6ʹ,6ʹ-trimethyl-4ʹ-oxocyclohex-2ʹ-enyl)-3-methyl-penta-2,4-dienoic acid], for which the activation at 1 µM was around 25% in data set [1] (setting [8]); around 25% in data set [2] (setting [8]); 50% in data set [3] (Rattus norvegicus, 0.25 h, ABA 10⁻⁶ M added 15 minutes before the high-K solution (K+ 60 mM), read-out: enhancement of contracture tension). The “tonic phase of the response” value in data set [3] (ABA 10⁻⁶ M in high-K saline, added just after the initial phasic response) is given as “enhanced; also recorded: considerable enhancement”. The contracture tension result in data set [3] (ABA 10⁻⁶M, K+-depolarized muscle, result in words) is listed as “considerably augmented”. In data set [4] (ABA 10⁻⁶M in perfusion solution, 10°C), the contractile force entry is listed as “augment”. For the same compound, in data set [4] (prolonged ABA exposure (15 minutes)), the cardiac arrhythmia entry is “pronounced cardiac arrhythmia”. Besides, in data set [5], the “activity in enhancing K+-induced contracture tension” value is given as “identical activity”. Besides, the EC (100% enhancement) in data set [5] (rat vas deferens, partly depolarized, read-out: threshold for 100% enhancement of K contracture tension) was around 0.005 µM. In addition, the “potassium-stimulated microsomal calcium efflux” value in data set [6] is “enhances”. Moreover, the field stimulation response entry in data set [7] is recorded as “enhances”.
For `COC(=O)C1=C(C)NC(C)=C([N+](=O)[O-])C1c1ccccc1C(F)(F)F` (stereo not shown) [BAY K 8644, methyl 1,4-dihydro-2,6-dimethyl-5-nitro-4-[2-(trifluoromethyl)-phenyl]-3-pyridinecarboxylate, reference compound], the “activity in enhancing K+-induced contracture tension” value in data set [5] is given as “identical activity”. Further, the “threshold / potency relative to ABA” value in data set [5] (rat vas deferens) is given as “roughly one order of magnitude greater than ABA”.
For `COC(=O)C1=C(C)NC(C)=C(C(=O)OC)C1c1ccccc1[N+](=O)[O-]` [nifedipine, reference compound], the “inhibition of the ABA augmentation of the field stimulation response (and of the response itself)” value in data set [1] (nifedipine after ABA 10⁻⁶M, bladder) was “inhibited”; in data set [2] (nifedipine 10⁻⁷M added after ABA 10⁻⁶M, vas deferens) it was “inhibited”. Also, the “inhibition of the ABA action on contractile force” value in data set [4] (nifedipine after ABA 10⁻⁶M) is “inhibited”.

(Values after EP0240257A2, “Compounds and pharmaceutical preparations having calcium - regulatory activity” (University of Lancaster, priority 1986, dated 1987).)
